In PMC9699003, “Arene Variation of Highly Cytotoxic Tridentate Naphthoquinone-Based Ruthenium(II) Complexes and In-Depth In Vitro Studies” (Pharmaceutics, 2022):

Assays:
[1] = test system: A549 non-small cell lung cancer cells; conditions: A549, MTT, 96 h exposure; cited from earlier work
NQO1 (SW480 cells) = target: T1, NQO1 (SW480 cells) (Homo sapiens, UniProt P15559); experiment: NQO1 activity assay in cell extracts after treatment; assay type: cell-based; conditions: SW480, 24 h treatment
T1 construct: impact on NQO1 activity in SW480 (left panel) and CH1/PA-1 (right panel) cell extracts after treatment; endogenous in cells; host or cells: SW480 colon carcinoma cells (ATCC)
T1 sequence (P15559 whole entry): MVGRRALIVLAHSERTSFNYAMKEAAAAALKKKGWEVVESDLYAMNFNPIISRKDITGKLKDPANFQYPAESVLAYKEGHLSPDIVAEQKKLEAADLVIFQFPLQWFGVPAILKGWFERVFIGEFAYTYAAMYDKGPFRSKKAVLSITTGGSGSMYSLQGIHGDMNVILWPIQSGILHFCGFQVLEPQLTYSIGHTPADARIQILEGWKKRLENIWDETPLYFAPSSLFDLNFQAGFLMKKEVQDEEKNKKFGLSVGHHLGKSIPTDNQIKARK
Experimental: To determine NQO1 activity, SW480 and CH1/PA-1 cells were seeded into 6-well plates in densities of 2 × 10^5 cells/well in 2 mL supplemented MEM. […] The test substances were dissolved in DMSO/medium. To exclude that assay validity was compromised by the use of DMSO, cells treated with DMSO alone (at concentrations corresponding to those in substance solutions) were measured in parallel. After 24 h drug exposure, the medium was aspirated, and the cells were gently washed twice with PBS. The further steps were performed following the manual instructions of the NQO1 activity assay kit (ab184867, abcam, Cambridge, UK). Protease inhibitor phenylmethylsulfonyl fluoride (PMSF, Merck, Darmstadt, Germany) and phosphatase inhibitor PhosSTOP^TM (Roche, Basel, Switzerland) were applied. For determining the protein concentration, the Micro BCA^TM protein assay (prod # 23235, Thermo Scientific) kit was used. For NQO1 activity determination, 100 µg/mL of total protein was loaded. The development of yellow color was monitored for 5 min in 20-sec intervals with a microplate reader (BioTek ELx808) at 450 nm. The measured data were evaluated according to the instructions of the NQO1 activity assay kit: “NQO1 activity was calculated by subtracting the OD value with Inhibitor from the one without Inhibitor. The activity is expressed as the change in absorbance per minute per amount of sample loaded into the well” [30]. Data are expressed as rates of increase of mean absorbance ± SDs from three independent experiments.

[2] = test system: CH1/PA-1 ovarian teratocarcinoma cells; conditions: CH1/PA-1, MTT, 96 h exposure; cited from earlier work
pUC19 plasmid = test system: pUC19 plasmid; design: method as in PMID 34115482; conditions: cited from earlier work
CH1/PA-1 cells [3] = experiment: DCFH-DA assay (ROS levels); assay type: cell-based, human; conditions: CH1/PA-1, DCFH-DA, up to 2 h
[4] = test system: SW480 colon carcinoma cells; conditions: SW480, MTT, 96 h exposure; cited from earlier work
[5] = HPLC-MS stability measurements in PBS; conditions: PBS pH 7.4, 20 °C, 40 µM, after 24 h
Experimental: 4 µL of stock solution was mixed with 990 µL of PBS buffer (pH 7.4) and 6 µL DMSO to obtain a final concentration of 40 µM. After injection, the chromatogram at 225 nm and the corresponding mass spectra (positive mode) were recorded hourly (4 h) and after 24 h at 20 °C. Peak areas were determined by integrating complex signals of the respective chromatogram. The measurements were performed with an HPLC system (Agilent Technologies, […]) equipped with a C18 column (Waters, Atlantis T3 […], 1.0 × 150 mm^2) coupled to an MS (Bruker, amaZon SL, ESI, positive mode) with a flow rate of 0.2 mL/min at 20 °C and a gradient (5–95%) with Milli-Q water/ACN.

CH1/PA-1 cells [6] = experiment: Cell cycle distribution (PI staining, flow cytometry); assay type: cell-based, human; conditions: CH1/PA-1, 24 h
Experimental: (§1) For the flow-cytometric determination of cell cycle distribution, CH1/PA-1 (8 × 10^4 cells/well) and SW480 (1.2 × 10^5 cells/well) cells were seeded into 12-well plates (CytoOne, tissue culture treated) in 1 mL supplemented MEM. In the first 24 h, the cells were allowed to settle and resume exponential growth. […] Gemcitabine (Sigma-Aldrich, 0.01 and 0.05 µM) and etoposide (Sigma-Aldrich, 0.25, 0.5 and 1 µM) were used as positive controls. After removal of the treatment medium, cells were washed with 1 mL PBS and trypsinized. Cells were collected in Eppendorf tubes and centrifuged (300 g, 3 min), and the supernatant was discarded. In the following step, cells were washed with 1 mL PBS and resuspended in 500 µL PI/HFS buffer (0.1% v/v Triton X-100, 0.1% w/v sodium citrate, in PBS) containing 25 µg/mL propidium iodide (PI, 1.0 mg/mL, Sigma-Aldrich). The staining was carried out overnight at 4 °C in the dark, and 200 µL of the cell suspension was loaded into 96-well round bottom plates (Falcon). Samples were measured with a Millipore Guava easyCyte 8HT flow cytometer with GuavaSoft™ software in the InCyte-modus, and 10,000 events/sample were detected. Data were analyzed with FlowJo software v 10.8.1 (Tree Star, Ashland, OR, USA) using Watson algorithm. Percentages of cells in the three cell cycle phases (G1/G0, S and G2/M) were calculated by integrating the resulting histograms of fluorescence signals (Figures S29 and S30). Experiments were repeated at least three times. For statistical evaluation, an unpaired t-test with Welch’s correction was performed by using GraphPad PRISM software.

SW480 cells = experiment: as above; assay type: cell-based, human; conditions: SW480, 24 h
Experimental: as §1

## CC1=C([O-])C([O-])(n2cccn2)c2ccccc2C1=O.Cc1ccc(C(C)C)cc1.[Ru+2] (racemic) [Compound 1]
[1]
  IC50: 1.2 ± 0.2 µM
NQO1 (SW480 cells); 0.1 µM and 1 µM, compared to untreated control
  Effect on NQO1 activity (in words): negligible effects
NQO1 (SW480 cells); 10 µM
  Effect on NQO1 activity (in words): lowered NQO1 activity tremendously
[2]
  IC50: > 50 µM
pUC19 plasmid
  Influence on pUC19 (in words): only a minor influence on pUC19
CH1/PA-1 cells [3]
  ROS level, T/C (treated vs negative control): ≈ 0.5
[4]
  IC50: 0.094 ± 0.031 µM
[5]
  Percentage amount of initial complex remaining: more than 70%
CH1/PA-1 cells [6]; 50 µM
  Cells in G1/G0 phase: 18.7 ± 1.7%
  Cells in G2/M phase: 48.2 ± 5.5%
  Cells in S phase: 39.2 ± 8.7%
CH1/PA-1 cells [6]; 100 µM
  Cells in G1/G0 phase: 19.8 ± 2.1%
  Cells in G2/M phase: 40.9 ± 4.0%
  Cells in S phase: 45.8 ± 3.8%
CH1/PA-1 cells [6]; 150 µM
  Cells in G1/G0 phase: 20.0 ± 1.3%
  Cells in G2/M phase: 31.0 ± 3.2%
  Cells in S phase: 52.9 ± 1.9%
CH1/PA-1 cells [6]; concentration-dependent
  Increase of S phase fraction relative to untreated control: up to 11%
SW480 cells; 0.039 µM
  Cells in G1/G0 phase: 23.8 ± 6.1%
  Cells in G2/M phase: 37.2 ± 2.3%
  Cells in S phase: 40.0 ± 2.1%
SW480 cells; 0.078 µM
  Cells in G1/G0 phase: 15.4 ± 1.2%
  Cells in G2/M phase: 34.5 ± 2.1%
  Cells in S phase: 53.4 ± 1.1%
SW480 cells; 0.16 µM
  Cells in G1/G0 phase: 25.0 ± 8.2%
  Cells in G2/M phase: 22.5 ± 4.3%
  Cells in S phase: 56.2 ± 8.4%

## CC1=C(O)C(=O)c2ccccc2C1=O [L, 2-Hydroxy-3-methyl-1,4-naphthoquinone]
[1]
  IC50: 210 ± 32 µM
NQO1 (SW480 cells); 10 µM
  Effect on NQO1 activity (in words): moderately inhibited
[2]
  IC50: 129 ± 29 µM
pUC19 plasmid
  Influence on pUC19 (in words): only a minor influence on pUC19
[4]
  IC50: 116 ± 37 µM
CH1/PA-1 cells [6]; 100 µM
  Cells in G1/G0 phase: 37.0 ± 0.3%
  Cells in G2/M phase: 22.9 ± 2.8%
  Cells in S phase: 41.4 ± 2.4%
CH1/PA-1 cells [6]; 150 µM
  Cells in G1/G0 phase: 40.8 ±1.7%
  Cells in G2/M phase: 19.3 ± 1.9%
  Cells in S phase: 42.1 ± 2.7%
CH1/PA-1 cells [6]; 200 µM
  Cells in G1/G0 phase: 47.2 ± 1.7%
  Cells in G2/M phase: 16.8 ± 8.9%
  Cells in S phase: 37.6 ± 3.5%
SW480 cells; 50 µM
  Cells in G1/G0 phase: 47.4 ± 2.0%
  Cells in G2/M phase: 14.5 ± 0.5%
  Cells in S phase: 38.8 ± 1.7%
SW480 cells; 100 µM
  Cells in G1/G0 phase: 51.5 ± 5.0%
  Cells in G2/M phase: 12.1 ± 0.4%
  Cells in S phase: 35.9 ± 3.4%
SW480 cells; 150 µM
  Cells in G1/G0 phase: 52.0 ± 2.9%
  Cells in G2/M phase: 11.3 ± 0.5%
  Cells in S phase: 36.3 ± 2.2%
SW480 cells; tested concentrations
  Cell cycle perturbation (in words): did not show any cell cycle perturbation
